Like-named read-outs stand apart in the source and are kept apart here.
System: HIV-1 (HIVIIIB) replication in MT2 cell line
Test: HIV-1 replication in MT2 cell line with and without 30% human serum (viral RT activity in supernatant)
Type: cell-based
Conditions: Human immunodeficiency virus 1, MT2 cells, average IC50 if tested more than once
Summary of the method: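 MT2 cells infected with HIV-1 IIIB at MOI 0.5 for 3 h, washed, seeded at 0.5×10^6/ml in RPMI/10% FBS with serially diluted compound, with or without 30% human serum; medium and compound refreshed on day 3. RT activity in supernatant at day 5; IC50 and IC90 derived.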

[1] = with 30% human serum, read-out: MT2 (HIVIIIB) with HS 30% IC50 range
[2] = without human serum, read-out: MT2 (HIVIIIB) IC50 range

Row | Compound | IC50 [1] [nM] | IC50 [2] [nM]
1 | Cc1cc(C(=O)N[C@@]23CC[C@]4(C)[C@H](CC[C@@H]5[C@@]6(C)CC[C@H](OC(=O)CC(C)(C)C(=O)O)C(C)(C)[C@@H]6CC[C@]54C)C2=C(C(C)C)C(=O)C3)ccn1 [19-52, 3β-O-(3′,3′-Dimethylsuccinyl)-17β-(2-methylpyridin-4-yl)amido-21-oxolup-18-ene] | < 199 | 
2 | CC(C)C1=C2[C@H]3CC[C@@H]4[C@@]5(C)CC[C@H](OC(=O)CC(C)(C)C(=O)O)C(C)(C)[C@@H]5CC[C@@]4(C)[C@]3(C)CC[C@@]2(NC(=O)c2cncn2C)CC1=O [19-18, 3β-O-(3′,3′-Dimethylsuccinyl)-17β-(1-methyl-1H-imidazole-5-amido)-21-oxolup-18-ene] | < 199 | 
3 | CC(C)C1=C2[C@H]3CC[C@@H]4[C@@]5(C)CC[C@H](OC(=O)CC(C)(C)C(=O)O)C(C)(C)[C@@H]5CC[C@@]4(C)[C@]3(C)CC[C@@]2(NC(=O)c2ccccc2F)CC1=O [19-11, 3β-O-(3′,3′-Dimethylsuccinyl)-17β-(2-fluorobenzamido)-21-oxolup-18-ene] | < 199 | < 199
4 | CC(C)C1=C2[C@H]3CC[C@@H]4[C@@]5(C)CC[C@H](OC(=O)CC(C)(C)C(=O)O)C(C)(C)[C@@H]5CC[C@@]4(C)[C@]3(C)CC[C@@]2(NC(=O)CCN2CCCC2)CC1=O [19-37, 3β-O-(3′,3′-Dimethylsuccinyl)-17β-(3-pyrrolidin-1-yl-propionamido)-21-oxolup-18-ene] | < 199 | 
5 | CC(C)C1=C2C3CCC4[C@@]5(C)CC[C@H](OC(=O)CC(C)(C)C(=O)O)C(C)(C)C5CC[C@@]4(C)[C@]3(C)CC[C@@]2(NC(=O)OC2CCS(=O)(=O)CC2)CC1=O (stereo partly drawn) [20-15, 3β-O-(3′,3′-Dimethylsuccinyl)-17β-(1,1-dioxo-tetrahydro-thiopyran-4-oxycarbonylamino)-21-oxolup-18-ene] | < 199 | 
6 | CCNC(=O)N[C@@]12CC[C@]3(C)[C@H](CC[C@@H]4[C@@]5(C)CC[C@H](OC(=O)CC(C)(C)C(=O)O)C(C)(C)[C@@H]5CC[C@]43C)C1=C(C(C)C)C(=O)C2 [17-2, 3β-O-(3′,3′-Dimethylsuccinyl)-17β-[N′-(ethyl)ureido]-21-oxolup-18-ene] | < 199 | < 199
7 | CC(C)C1=C2C3CCC4[C@@]5(C)CC[C@H](OC(=O)CC(C)(C)C(=O)O)C(C)(C)C5CC[C@@]4(C)[C@]3(C)CC[C@@]2(NC(=O)C(C)(C)C)CC1=O (stereo partly drawn) [19-32, 3β-O-(3′,3′-Dimethylsuccinyl)-17β-tert-butylamido-21-oxolup-18-ene] | < 199 | 
8 | CC(C)C1=C2C3CCC4[C@@]5(C)CC[C@H](OC(=O)CC(C)(C)C(=O)O)C(C)(C)C5CC[C@@]4(C)[C@]3(C)CC[C@@]2(NC(=O)NC(C)(C)C)CC1=O (stereo partly drawn) [17-5, 3β-O-(3′,3′-Dimethylsuccinyl)-17β-[N′-(tert-butyl)ureido]-21-oxolup-18-ene] | < 199 | < 199
9 | CC(C)C1=C2C3CCC4[C@@]5(C)CC[C@H](OC(=O)CC(C)(C)C(=O)O)C(C)(C)C5CC[C@@]4(C)[C@]3(C)CC[C@@]2(NC(=O)C(C)N(C)C)CC1=O (mixture of isomers) [19-59, 3β-O-(3′,3′-Dimethylsuccinyl)-17β-((RS)-2-dimethylamino-propionamido)-21-oxolup-18-ene] | < 199 | 
10 | Cc1nnc(NC(=O)N[C@@]23CC[C@]4(C)C(CCC5[C@@]6(C)CC[C@H](OC(=O)CC(C)(C)C(=O)O)C(C)(C)C6CC[C@]54C)C2=C(C(C)C)C(=O)C3)s1 (stereo partly drawn) [17-45, 3β-O-(3′,3′-Dimethylsuccinyl)-17β-(N′-5-methyl-[1,3,4]thiadiazol-2-yl-ureido)-21-oxolup-18-ene] | < 199 | 
11 | CC(C)C1=C2[C@H]3CC[C@@H]4[C@@]5(C)CC[C@H](OC(=O)CC(C)(C)C(=O)O)C(C)(C)[C@@H]5CC[C@@]4(C)[C@]3(C)CC[C@@]2(NS(C)(=O)=O)CC1=O [18-1, 3β-O-(3′,3′-Dimethylsuccinyl)-17β-methylsulfonylamino-21-oxolup-18-ene] | < 199 | < 199
